From patent US5284759A, “Biological production of acetal or ketal substituted benzene compounds” (Minnesota Mining and Manufacturing Company, priority 1992, dated 1994) come the findings set out here.

≈ marks a conversion by molar mass, not a printed value.

A short description of series [1]: solubility of substrates in MSB buffer. It is filed as physicochemical. The text has this:
(§1) Two significant parameters of each substrate tested were toxicity and water solubility. The combined effects of those parameters will influence the maximum rate of biotransformation by the microbial culture. Methods were developed to examine the effects of substrate concentration on the rate of biotransformation and cell growth. The rates of biotransformation were apparently independent of the substrates' water solubility. For example, the solubilities of bromobenzene, acetophenone, and 1-phenyl-1,2-ethanediol in MSB buffer (at 30° C.) are approximately 400 mg/liter, 2000 mg/liter, and 5000 mg/liter, respectively. Bromobenzene, one of the least water-soluble substrates tested, was transformed to its dihydrodiol by strain F39/D at an average rate of about 20 mg/liter/hour. […] Substrate toxicity was determined by examining the growth rate of strain F39/D in the presence of the test compounds.

Series [2] has as its system Pseudomonas putida strain F39/D. The series can be described thus: rate of biotransformation of substrate to its dihydrodiol by strain F39/D. It counts as cell-based.
Source text: as §1
Biotransformation preferably involves the addition of the starting substrate to an induced microbial cell suspension. The microorganisms are then allowed to grow such that the enzyme, arene 2,3-dioxygenase may act on the substrate. The induced microorganisms are prepared as described above. […]

Series [3] shares this test system. Briefly: substrate toxicity: growth of strain F39/D in the presence of the test compounds. It counts as cell-based.
Source text: as §1

In the case of `Brc1ccccc1` [bromobenzene], the “solubility in MSB buffer” value in series [1] (MSB buffer, 30° C.) was “approximately 400 mg/liter”. For the same compound, the “average rate of transformation to its dihydrodiol” value in series [2] is given as “about 20 mg/liter/hour”. Further, in series [2] (relative to acetophenone or 1-phenylethanediol transformation), the “rate of transformation compared with acetophenone or 1-phenylethanediol” value is “much greater than that of acetophenone or 1-phenylethanediol transformation”. Further, the “growth of the microbes” value in series [3] (400 mg/l (saturated level)) is “apparently unaffected”.

Take `CC(=O)c1ccccc1` [acetophenone]: in series [1] (msb buffer), the “solubility in MSB buffer” value is about 2000 µg/mL (≈ 16.6 mM). Moreover, the “growth of the microbes” value in series [3] (1000 mg/l (one-half saturated level)) is given as “completely inhibited”.

Consider `OCC(O)c1ccccc1` (stereo not shown) [1-phenyl-1,2-ethanediol], for which the “solubility in MSB buffer” value in series [1] (msb buffer) is about 5000 µg/mL (≈ 36.2 mM).
